Results reported in patent US11440899B2, “Pyrimidine TBK/IKKe inhibitor compounds and uses thereof” (Merck Patent GmbH, priority 2017, dated 2022).
Counter-ions that a name gives are not always drawn.

Key:
[1] = target: TBK1 (Homo sapiens (Human), UniProt Q9UHD2); experiment: TBK Biochemical Assay
In short: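 Enzyme and substrate with compound (10-point 1:4 series, top 30 uM final, 1% DMSO) incubated 90 min at 25 °C, then stopped; substrate/product separated and read by LabChip mobility-shift, staurosporine 10 uM final as full-inhibition control.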

[2] = target: IKKe (Homo sapiens (Human), UniProt Q14164); experiment: IKKe Biochemical Assay
Sequence of IKKe (Q14164 whole entry, species assumed): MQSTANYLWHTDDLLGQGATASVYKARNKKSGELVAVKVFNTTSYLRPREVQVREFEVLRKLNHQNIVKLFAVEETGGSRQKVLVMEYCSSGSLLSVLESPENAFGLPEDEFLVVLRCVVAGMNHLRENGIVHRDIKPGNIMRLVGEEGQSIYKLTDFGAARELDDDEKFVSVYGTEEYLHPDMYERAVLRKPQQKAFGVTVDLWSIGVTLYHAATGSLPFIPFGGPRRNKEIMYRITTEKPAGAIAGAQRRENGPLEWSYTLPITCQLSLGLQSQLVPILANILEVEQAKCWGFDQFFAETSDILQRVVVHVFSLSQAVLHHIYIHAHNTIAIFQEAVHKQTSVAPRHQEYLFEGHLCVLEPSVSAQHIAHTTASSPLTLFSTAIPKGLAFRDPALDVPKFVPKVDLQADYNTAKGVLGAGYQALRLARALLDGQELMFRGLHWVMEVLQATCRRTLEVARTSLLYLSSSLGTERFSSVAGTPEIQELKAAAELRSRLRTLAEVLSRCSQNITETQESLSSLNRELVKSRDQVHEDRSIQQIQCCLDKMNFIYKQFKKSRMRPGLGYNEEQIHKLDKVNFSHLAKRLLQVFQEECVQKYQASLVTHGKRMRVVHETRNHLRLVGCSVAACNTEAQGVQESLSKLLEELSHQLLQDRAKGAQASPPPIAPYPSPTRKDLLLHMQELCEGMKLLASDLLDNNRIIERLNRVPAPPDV
In short: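 Human IKKε activity was measured with compounds in a 10-point 1:4 dilution series, top concentration 30 uM final, in 1% DMSO final; 10 uM staurosporine served as the control. Enzyme and substrate were incubated 90 min at 25° C, then stopped, and substrate/product peaks were separated by microfluidic mobility-shift on a LabChip EZ Reader II.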

Sequence of TBK1 (Q9UHD2 whole entry, species assumed): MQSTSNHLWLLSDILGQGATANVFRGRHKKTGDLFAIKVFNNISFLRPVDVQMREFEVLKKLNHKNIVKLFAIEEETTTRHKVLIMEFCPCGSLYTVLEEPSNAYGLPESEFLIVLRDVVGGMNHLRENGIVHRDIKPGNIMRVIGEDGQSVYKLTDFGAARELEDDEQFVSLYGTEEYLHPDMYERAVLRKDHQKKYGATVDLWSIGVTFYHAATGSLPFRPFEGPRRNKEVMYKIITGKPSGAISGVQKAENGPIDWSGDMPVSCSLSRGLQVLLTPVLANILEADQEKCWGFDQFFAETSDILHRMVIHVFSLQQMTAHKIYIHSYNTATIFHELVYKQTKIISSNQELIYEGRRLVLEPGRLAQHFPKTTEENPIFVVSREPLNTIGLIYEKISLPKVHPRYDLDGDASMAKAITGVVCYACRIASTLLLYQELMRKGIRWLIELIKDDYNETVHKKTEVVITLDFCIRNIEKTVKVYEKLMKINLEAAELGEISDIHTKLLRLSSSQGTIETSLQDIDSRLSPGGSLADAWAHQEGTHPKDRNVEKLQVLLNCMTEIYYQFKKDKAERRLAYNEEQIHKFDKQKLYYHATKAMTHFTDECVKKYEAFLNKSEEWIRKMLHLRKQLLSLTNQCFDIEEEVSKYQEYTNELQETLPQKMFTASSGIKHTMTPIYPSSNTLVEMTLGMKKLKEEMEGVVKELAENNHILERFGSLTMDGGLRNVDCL

| SMILES | IC50 [1] [nM] | IC50 [2] [nM] |
| --- | --- | --- |
| COc1nc(Nc2cc(-c3ccc(O[C@H]4CCN(C(=O)CO)CC4(F)F)c(C#N)c3)ncn2)ccc1N1CCN(C)CC1 [Example 60, 2-[[(4S)-3,3-difluoro-1-(2-hydroxyacetyl)piperidin-4-yl]oxy]-5-(6-[[6-methoxy-5-(4-methylpiperazin-1-yl)pyridin-2-yl]amino]pyrimidin-4-yl)benzonitrile] | < 100 | < 100 |
| COc1nc(Nc2cc(-c3ccc(OC4CCNCC4(F)F)c(C#N)c3)ncn2)ccc1N1CCN(C)C[C@H]1C (stereo partly drawn) [Example 64, 2-[(3,3-difluoropiperidin-4-yl)oxy]-5-[6-({5-[(2R)-2,4-dimethylpiperazin-1-yl]-6-methoxypyridin-2-yl}amino)pyrimidin-4-yl]benzonitrile] | < 100 | < 100 |
| COc1nc(Nc2cc(-c3ccc(OC4CCNCC4(F)F)c(C#N)c3)ncn2)ccc1N1CCN(C2COC2)C[C@@H]1C (stereo partly drawn) [Example 67, 2-[(3,3-difluoropiperidin-4-yl)oxy]-5-[6-({6-methoxy-5-[(2S)-2-methyl-4-(oxetan-3-yl)piperazin-1-yl]pyridin-2-yl}amino)pyrimidin-4-yl]benzonitrile] | < 100 | < 100 |
| COc1nc(Nc2cc(-c3ccc(OC4CCN(C(=O)[C@@H](C)O)CC4(F)F)c(C#N)c3)ncn2)ccc1N1CCN(C2COC2)C[C@@H]1C (stereo partly drawn) [Example 68, 2-([3,3-difluoro-1-[(2R)-2-hydroxypropanoyl]piperidin-4-yl]oxy)-5-[6-([6-methoxy-5-[(2S)-2-methyl-4-(oxetan-3-yl)piperazin-1-yl]pyridin-2-yl]amino)pyrimidin-4-yl]benzonitrile] | < 100 | < 100 |
| COc1nc(Nc2cc(-c3ccc(OC4CCNCC4(F)F)c(C#N)c3)ncn2)ccc1N1CCN(C2COC2)C[C@H]1C (stereo partly drawn) [Example 69, 2-[(3,3-difluoropiperidin-4-yl)oxy]-5-[6-({6-methoxy-5-[(2R)-2-methyl-4-(oxetan-3-yl)piperazin-1-yl]pyridin-2-yl}amino)pyrimidin-4-yl]benzonitrile] | < 100 | < 100 |
| COc1nc(Nc2cc(-c3ccc(OC4CCN(C(=O)[C@@H](C)O)CC4(F)F)c(C#N)c3)ncn2)ccc1N1CCN(C2COC2)C[C@H]1C (stereo partly drawn) [Example 70, 2-([3,3-difluoro-1-[(2R)-2-hydroxypropanoyl]piperidin-4-yl]oxy)-5-[6-([6-methoxy-5-[(2R)-2-methyl-4-(oxetan-3-yl)piperazin-1-yl]pyridin-2-yl]amino)pyrimidin-4-yl]benzonitrile] | < 100 | < 100 |
| COc1nc(Nc2cc(-c3ccc(OC4CCN(C(=O)[C@H](C)O)CC4(F)F)c(C#N)c3)ncn2)ccc1N1CCN(C2COC2)C[C@H]1C (stereo partly drawn) [Example 71, 2-([3,3-difluoro-1-[(2S)-2-hydroxypropanoyl]piperidin-4-yl]oxy)-5-[6-([6-methoxy-5-[(2R)-2-methyl-4-(oxetan-3-yl)piperazin-1-yl]pyridin-2-yl]amino)pyrimidin-4-yl]benzonitrile] | < 100 | < 100 |
| COc1nc(Nc2cc(-c3ccc(OC4CCNCC4(F)F)c(C#N)c3)ncn2)ccc1N1CCN(C)[C@H](C)C1 (stereo partly drawn) [Example 73, 2-[(3,3-difluoropiperidin-4-yl)oxy]-5-[6-({5-[(3R)-3,4-dimethylpiperazin-1-yl]-6-methoxypyridin-2-yl}amino)pyrimidin-4-yl]benzonitrile] | < 100 | < 100 |
| COc1nc(Nc2cc(-c3ccc(OC4CCNCC4(F)F)c(C#N)c3)ncn2)ccc1N1CCN(C2COC2)CC1 (stereo not shown) [Example 76, 2-[(3,3-difluoropiperidin-4-yl)oxy]-5-[6-({6-methoxy-5-[4-(oxetan-3-yl)piperazin-1-yl]pyridin-2-yl}amino)pyrimidin-4-yl]benzonitrile] | < 100 | < 100 |
| COc1nc(Nc2cc(-c3ccc(OC4CCN(C(=O)[C@@H](C)O)CC4(F)F)c(C#N)c3)ncn2)ccc1N1CCN(C2COC2)CC1 (stereo partly drawn) [Example 77, 2-([3,3-difluoro-1-[(2R)-2-hydroxypropanoyl]piperidin-4-yl]oxy)-5-[6-([6-methoxy-5-[4-(oxetan-3-yl)piperazin-1-yl]pyridin-2-yl]amino)pyrimidin-4-yl]benzonitrile] | < 100 | < 100 |
| COc1nc(Nc2cc(-c3ccc(OC4CCN(C(=O)[C@H](C)O)CC4(F)F)c(C#N)c3)ncn2)ccc1N1CCN(C2COC2)CC1 (stereo partly drawn) [Example 78, 2-([3,3-difluoro-1-[(2S)-2-hydroxypropanoyl]piperidin-4-yl]oxy)-5-[6-([6-methoxy-5-[4-(oxetan-3-yl)piperazin-1-yl]pyridin-2-yl]amino)pyrimidin-4-yl]benzonitrile] | < 100 | < 100 |
| COc1nc(Nc2cc(-c3ccc(O[C@H]4CCN(C(=O)c5cnn[nH]5)C[C@H]4F)c(C#N)c3)ncn2)ccc1N1CCN(C2COC2)CC1 [Example 79, 2-[[(3R,4S)-3-fluoro-1-[(1H-1,2,3-triazol-5-yl)carbonyl]piperidin-4-yl]oxy]-5-[6-([6-methoxy-5-[4-(oxetan-3-yl)piperazin-1-yl]pyridin-2-yl]amino)pyrimidin-4-yl]benzonitrile] | < 100 | < 100 |
| COc1nc(Nc2cc(-c3ccc(OC4CCNCC4(F)F)c(C#N)c3)ncn2)ccc1N1CCN(C)[C@@H](C)C1 (stereo partly drawn) [Example 80, 2-[(3,3-difluoropiperidin-4-yl)oxy]-5-[6-({5-[(3S)-3,4-dimethylpiperazin-1-yl]-6-methoxypyridin-2-yl}amino)pyrimidin-4-yl]benzonitrile] | < 100 | < 100 |
| COc1nc(Nc2cc(-c3ccc(OC4CCNCC4(F)F)c(C#N)c3)ncn2)ccc1C1CCN(C2COC2)CC1 (stereo not shown) [Example 83] | < 100 | < 100 |

Continued, values first:

| IC50 [1] [nM] | IC50 [2] [nM] | SMILES |
| --- | --- | --- |
| < 100 | < 100 | COc1nc(Nc2cc(-c3ccc(OC4CCN(C(=O)[C@H](C)O)CC4(F)F)c(C#N)c3)ncn2)ccc1N1CCN(C)C[C@@H]1C (stereo partly drawn) [Example 62, 2-([3,3-difluoro-1-[(2S)-2-hydroxypropanoyl]piperidin-4-yl]oxy)-5-[6-([5-[(2S)-2,4-dimethylpiperazin-1-yl]-6-methoxypyridin-2-yl]amino)pyrimidin-4-yl]benzonitrile hydrochloride] |
| < 100 | < 100 | COc1nc(Nc2cc(-c3ccc(OC4CCN(C(=O)[C@@H](C)O)CC4(F)F)c(C#N)c3)ncn2)ccc1N1CCN(C)C[C@@H]1C (stereo partly drawn) [Example 63, 2-([3,3-difluoro-1-[(2R)-2-hydroxypropanoyl]piperidin-4-yl]oxy)-5-[6-([5-[(2S)-2,4-dimethylpiperazin-1-yl]-6-methoxypyridin-2-yl]amino)pyrimidin-4-yl]benzonitrile hydrochloride] |
| < 100 | < 100 | COc1nc(Nc2cc(-c3ccc(OC4CCN(C(=O)[C@H](C)O)CC4(F)F)c(C#N)c3)ncn2)ccc1N1CCN(C)C[C@H]1C (stereo partly drawn) [Example 65, 2-([3,3-difluoro-1-[(2S)-2-hydroxypropanoyl]piperidin-4-yl]oxy)-5-[6-([5-[(2R)-2,4-dimethylpiperazin-1-yl]-6-methoxypyridin-2-yl]amino)pyrimidin-4-yl]benzonitrile hydrochloride] |
| < 100 | < 100 | COc1nc(Nc2cc(-c3ccc(OC4CCN(C(=O)[C@@H](C)O)CC4(F)F)c(C#N)c3)ncn2)ccc1N1CCN(C)C[C@H]1C (stereo partly drawn) [Example 66, 2-([3,3-difluoro-1-[(2R)-2-hydroxypropanoyl]piperidin-4-yl]oxy)-5-[6-([5-[(2R)-2,4-dimethylpiperazin-1-yl]-6-methoxypyridin-2-yl]amino)pyrimidin-4-yl]benzonitrile hydrochloride] |
| < 100 | < 100 | COc1nc(Nc2cc(-c3ccc(OC4CCN(C(=O)[C@H](C)O)CC4(F)F)c(C#N)c3)ncn2)ccc1N1CCN(C2COC2)C[C@@H]1C (stereo partly drawn) [Example 72, 2-([3,3-difluoro-1-[(2S)-2-hydroxypropanoyl]piperidin-4-yl]oxy)-5-[6-([6-methoxy-5-[(2S)-2-methyl-4-(oxetan-3-yl)piperazin-1-yl]pyridin-2-yl]amino)pyrimidin-4-yl]benzonitrile] |
| < 100 | < 100 | COc1nc(Nc2cc(-c3ccc(OC4CCN(C(=O)[C@H](C)O)CC4(F)F)c(C#N)c3)ncn2)ccc1N1CCN(C)[C@H](C)C1 (stereo partly drawn) [Example 74, 2-([3,3-difluoro-1-[(2S)-2-hydroxypropanoyl]piperidin-4-yl]oxy)-5-[6-([5-[(3R)-3,4-dimethylpiperazin-1-yl]-6-methoxypyridin-2-yl]amino)pyrimidin-4-yl]benzonitrile hydrochloride] |
| < 100 | < 100 | COc1nc(Nc2cc(-c3ccc(OC4CCN(C(=O)[C@@H](C)O)CC4(F)F)c(C#N)c3)ncn2)ccc1N1CCN(C)[C@H](C)C1 (stereo partly drawn) [Example 75, 2-([3,3-difluoro-1-[(2R)-2-hydroxypropanoyl]piperidin-4-yl]oxy)-5-[6-([5-[(3R)-3,4-dimethylpiperazin-1-yl]-6-methoxypyridin-2-yl]amino)pyrimidin-4-yl]benzonitrile hydrochloride] |
| < 100 | < 100 | COc1nc(Nc2cc(-c3ccc(OC4CCN(C(=O)[C@@H](C)O)CC4(F)F)c(C#N)c3)ncn2)ccc1N1CCN(C)[C@@H](C)C1 (stereo partly drawn) [Example 81, 2-([3,3-difluoro-1-[(2R)-2-hydroxypropanoyl]piperidin-4-yl]oxy)-5-[6-([5-[(3S)-3,4-dimethylpiperazin-1-yl]-6-methoxypyridin-2-yl]amino)pyrimidin-4-yl]benzonitrile] |
| < 100 | < 100 | COc1nc(Nc2cc(-c3ccc(OC4CCN(C(=O)[C@H](C)O)CC4(F)F)c(C#N)c3)ncn2)ccc1N1CCN(C)[C@@H](C)C1 (stereo partly drawn) [Example 82, 2-([3,3-difluoro-1-[(2S)-2-hydroxypropanoyl]piperidin-4-yl]oxy)-5-[6-([5-[(3S)-3,4-dimethylpiperazin-1-yl]-6-methoxypyridin-2-yl]amino)pyrimidin-4-yl]benzonitrile] |
